Values after ≈ are worked out from the molar mass of the structure shown. Where two headings read alike, the source gives them in different places.
Key:
[1] = tested on: Enterobacter cloacae NCTC 13406; test: MIC, broth microdilution (CLSI) versus planktonic bacteria; format: cell-based
E. coli MG1655 S83L = format: cell-based, Escherichia coli; conditions: compared to the isogenic parent strain E. coli MG1655; S83L mutation on DNA gyrase subunit GyrA
[2] = tested on: Haemophilus influenzae ATCC 49247; test: MIC, broth microdilution (CLSI) versus planktonic bacteria; format: cell-based
[3] = tested on: Acinetobacter baumannii NCTC 13420; test: as above; format: cell-based
[4] = tested on: Escherichia coli ATCC 25922; test: as above; format: cell-based
[5] = tested on: Pseudomonas aeruginosa ATCC 27853; test: as above; format: cell-based
E. coli MG1655 D87G = format: cell-based, Escherichia coli; conditions: compared to the isogenic parent strain E. coli MG1655; D87G mutation on DNA gyrase subunit GyrA
E. coli MG1655 = test: MIC, broth microdilution (CLSI) versus planktonic bacteria; format: cell-based, Escherichia coli; conditions: Escherichia coli, MG1655, read-out: MIC, Ec MG1655 WT
[6] = tested on: Staphylococcus aureus ATCC 29213; test: as above; format: cell-based
E. coli ATCC BAA-2452 = test: as above; format: cell-based; conditions: Escherichia coli ATCC BAA-2452; 16-20 h; mode of three independent experiments; read-out: MIC, Ec ATCC BAA 2452
[7] = tested on: Acinetobacter baumannii ATCC 19606; test: as above; format: cell-based
[8] = tested on: Streptococcus pneumoniae ATCC 49619; test: as above; format: cell-based
E. coli NCTC 13476 = test: as above; format: cell-based; conditions: NCTC13476; Escherichia coli NCTC 13476; 16-20 h; mode of three independent experiments; read-out: MIC, Ec NCTC 13476
[9] = tested on: human hepatic cell line (HepG2 ATCC HB-8065); test: Human cell viability assay (CellTiter-Glo); conditions: Homo sapiens, HepG2, 24 h, read-out: IC50 (μg/mL) HepG2
[10] = NCTC13406, Enterobacter cloacae NCTC 13406, 16-20 h, mode of three independent experiments, read-out: MIC, Ecl NCTC 13406
[11] = ATCC49247, Haemophilus influenzae ATCC 49247, 16-20 h, mode of three independent experiments, read-out: MIC, Hi ATCC 49247
[12] = NCTC13420, Acinetobacter baumannii NCTC 13420, 16-20 h, mode of three independent experiments, read-out: MIC, Ab NCTC 13420
[13] = ATCC25922, Escherichia coli ATCC 25922, 16-20 h, mode of three independent experiments, read-out: MIC, Ec ATCC 25922
[14] = ATCC27853, Pseudomonas aeruginosa ATCC 27853, 16-20 h, mode of three independent experiments, read-out: MIC, Pa ATCC 27853
[15] = ATCC29213, Staphylococcus aureus ATCC 29213, 16-20 h, mode of three independent experiments, read-out: MIC, Sa ATCC 29213
[16] = ATCC19606, Acinetobacter baumannii ATCC 19606, 16-20 h, mode of three independent experiments, read-out: MIC, Ab ATCC 19606
[17] = ATCC49619, Streptococcus pneumoniae ATCC 49619, 16-20 h, mode of three independent experiments, read-out: MIC, Sp ATCC 49619

| Structure (SMILES) | MIC [1, 10] [µg/mL] | Fold increase in MIC, E. coli MG1655 S83L (E. coli MG1655 S83L) [fold] | MIC [2, 11] [µg/mL] | MIC [3, 12] [µg/mL] | MIC [4, 13] [µg/mL] | MIC [5, 14] [µg/mL] | Fold increase in MIC, E. coli MG1655 D87G (E. coli MG1655 D87G) [fold] | MIC (E. coli MG1655) [µg/mL] | MIC [6, 15] [µg/mL] | MIC [7, 16] [µg/mL] | MIC [8, 17] [µg/mL] | IC50 [9] [µg/mL] | other results |
| --- | --- | --- | --- | --- | --- | --- | --- | --- | --- | --- | --- | --- | --- |
| N#Cc1cnc2ccc(=O)n(CCCN[C@H]3CC[C@H]4[C@H](C3)OC(=O)N4c3ccc4c(n3)NC(=O)CO4)c2c1 [Compound 82, 5-(3-{[(3aS,6S,7aS)-2-oxo-3-{3-oxo-2H,3H,4H-pyrido[3,2-b][1,4]oxazin-6-yl}-octahydro-1,3-benzoxazol-6-yl]amino}propyl)-6-oxo-5,6-dihydro-1,5-naphthyridine-3-carbonitrile] | 1 to 10 (≈ 1.94 to 19.4 µM) | 0.5 | < 1 | 1 to 10 (≈ 1.94 to 19.4 µM) | < 1 | 1 to 10 (≈ 1.94 to 19.4 µM) | 1 | < 1 | < 1 | 1 to 10 (≈ 1.94 to 19.4 µM) | < 1 | – | MIC (E. coli ATCC BAA-2452): 1 to 10 µg/mL (≈ 1.94 to 19.4 µM) |
| COc1ccc2ccc(=O)n(CCN(CCN)[C@H]3CC[C@H]4[C@@H](C3)OC(=O)N4c3ccc4c(n3)NC(=O)CO4)c2n1 [Compound 13, 1-(2-{[(3aS,6S,7aR)-2-oxo-3-{3-oxo-2H,3H,4H-pyrido[3,2-b][1,4]oxazin-6-yl}-octahydro-1,3-benzoxazol-6-yl](2-aminoethyl)amino}ethyl)-7-methoxy-1,2-dihydro-1,8-naphthyridin-2-one] | 10 to 100 (≈ 18.2 to 182 µM) | – | 10 to 100 (≈ 18.2 to 182 µM) | 10 to 100 (≈ 18.2 to 182 µM) | 1 to 10 (≈ 1.82 to 18.2 µM) | 1 to 10 (≈ 1.82 to 18.2 µM) | – | – | < 1 | – | 1 to 10 (≈ 1.82 to 18.2 µM) | > 100 | MIC (E. coli NCTC 13476): 1 to 10 µg/mL (≈ 1.82 to 18.2 µM) |
| COc1cnc2ccc(=O)n(CCN[C@H]3CC[C@H]4[C@H](C3)OC(=O)N4c3ccc4c(n3)NC(=O)CO4)c2c1 [Compound 42, 7-methoxy-1-{2-[(2-oxo-3-{3-oxo-2H,3H,4H-pyrido[3,2-b][1,4]oxazin-6-yl}-octahydro-1,3-benzoxazol-6-yl)amino]ethyl}-1,2-dihydro-1,5-naphthyridin-2-one] | < 1 | 1 | < 1 | < 1 | < 1 | 1 to 10 (≈ 1.97 to 19.7 µM) | 2 | < 1 | < 1 | 1 to 10 (≈ 1.97 to 19.7 µM) | < 1 | > 100 | – |
| C=CCOc1ccc2ccc(=O)n(CCN[C@H]3CC[C@H]4[C@H](C3)OC(=O)N4c3ccc4c(n3)NC(=O)CO4)c2c1 [Compound 89, 1-(2-{[(3aS,6S,7aS)-2-oxo-3-{3-oxo-2H,3H,4H-pyrido[3,2-b][1,4]oxazin-6-yl}-octahydro-1,3-benzoxazol-6-yl]amino}ethyl)-7-(prop-2-en-1-yloxy)-1,2-dihydroquinolin-2-one] | 1 to 10 (≈ 1.88 to 18.8 µM) | – | 1 to 10 (≈ 1.88 to 18.8 µM) | < 1 | < 1 | 1 to 10 (≈ 1.88 to 18.8 µM) | – | – | < 1 | < 1 | < 1 | 10 to 100 (≈ 18.8 to 188 µM) | MIC (E. coli NCTC 13476): 1 to 10 µg/mL (≈ 1.88 to 18.8 µM); MIC (E. coli ATCC BAA-2452): < 1 µg/mL |
| C[C@H]1COc2c(N3CCN(C)CC3)c(F)cc3c(=O)c(C(=O)O)cn1c23 [LEV, levofloxacin, reference compound] | – | 8 | – | – | – | – | 8 | – | – | – | – | – | – |
| O=C1COc2ccc(N3C(=O)O[C@@H]4C[C@@H](NCCn5c(=O)ccc6ccc(Oc7cccnc7)nc65)CC[C@@H]43)nc2N1 [Compound 12, 1-(2-{[(3aS,6S,7aR)-2-oxo-3-{3-oxo-2H,3H,4H-pyrido[3,2-b][1,4]oxazin-6-yl}-octahydro-1,3-benzoxazol-6-yl]amino}ethyl)-7-(pyridin-3-yloxy)-1,2-dihydro-1,8-naphthyridin-2-one] | 1 to 10 (≈ 1.76 to 17.6 µM) | 1 | 1 to 10 (≈ 1.76 to 17.6 µM) | 1 to 10 (≈ 1.76 to 17.6 µM) | < 1 | 1 to 10 (≈ 1.76 to 17.6 µM) | 1 | < 1 | < 1 | 1 to 10 (≈ 1.76 to 17.6 µM) | < 1 | > 100 | – |
| N#Cc1ccc2c(ccc(=O)n2CCN[C@@H]2CC[C@@H]3[C@@H](C2)OC(=O)N3c2ccc3c(n2)NC(=O)CO3)c1 [Compound 106, 1-(2-{[(3aR,6R,7aR)-2-oxo-3-{3-oxo-2H,3H,4H-pyrido[3,2-b][1,4]oxazin-6-yl}-octahydro-1,3-benzoxazol-6-yl]amino}ethyl)-2-oxo-1,2-dihydroquinoline-6-carbonitrile] | 1 to 10 (≈ 2 to 20 µM) | – | – | 1 to 10 (≈ 2 to 20 µM) | < 1 | – | – | < 1 | < 1 | – | < 1 | – | – |
| COc1ccc2c3conc3c(=O)n(CCN[C@H]3CC[C@H]4[C@@H](C3)OC(=O)N4c3ccc4c(n3)NC(=O)CO4)c2c1 [Compound 11, (3aS,6S,7aR)-6-[(2-{7-methoxy-4-oxo-4H,5H-[1,2]oxazolo[3,4-c]quinolin-5-yl}ethyl)amino]-3-{3-oxo-2H,3H,4H-pyrido[3,2-b][1,4]oxazin-6-yl}-octahydro-1,3-benzoxazol-2-one] | 1 to 10 (≈ 1.83 to 18.3 µM) | 2 | 1 to 10 (≈ 1.83 to 18.3 µM) | < 1 | < 1 | 1 to 10 (≈ 1.83 to 18.3 µM) | 1 | < 1 | < 1 | 1 to 10 (≈ 1.83 to 18.3 µM) | 1 to 10 (≈ 1.83 to 18.3 µM) | 10 to 100 (≈ 18.3 to 183 µM) | – |
| CNCCOc1ccc2ccc(=O)n(CCN[C@@H]3CC[C@@H]4[C@@H](C3)OC(=O)N4c3ccc4c(n3)NC(=O)CO4)c2c1 [Compound 39, (3aR,6R,7aR)—N-(2-{7-[2-(methylazaniumyl)ethoxy]-2-oxo-1,2-dihydroquinolin-1-yl}ethyl)-2-oxo-3-{3-oxo-2H,3H,4H-pyrido[3,2-b][1,4]oxazin-6-yl}-octahydro-1,3-benzoxazol-6-aminium dichloride] | – | – | – | – | – | – | – | – | – | – | – | > 100 | MIC ([1]; Enterobacter cloacae, NCTC13406, read-out: MIC, Ecl NCTC 13406): 10 to 100 µg/mL; MIC ([2]; Haemophilus influenzae, ATCC49247, read-out: MIC, Hi ATCC 49247): 10 to 100 µg/mL; MIC ([3]; Acinetobacter baumannii, NCTC13420, read-out: MIC, Ab NCTC 13420): 10 to 100 µg/mL; MIC ([4]; Escherichia coli, ATCC25922, read-out: MIC, Ec ATCC 25922): 1 to 10 µg/mL; MIC ([5]; Pseudomonas aeruginosa, ATCC27853, read-out: MIC, Pa ATCC 27853): 1 to 10 µg/mL; MIC ([6]; Staphylococcus aureus, ATCC29213, read-out: MIC, Sa ATCC 29213): 1 to 10 µg/mL; MIC ([7]; Acinetobacter baumannii, ATCC19606, read-out: MIC, Ab ATCC 19606): > 100 µg/mL; MIC ([8]; Streptococcus pneumoniae, ATCC49619, read-out: MIC, Sp ATCC 49619): 1 to 10 µg/mL |
| N#Cc1ccc2ccc(=O)n(CCN[C@@H]3CC[C@@H]4[C@@H](C3)OC(=O)N4c3ncc4c(n3)NC(=O)CO4)c2c1 [Compound 37, 1-(2-{[(3aR,6R,7aR)-2-oxo-3-{7-oxo-6H,7H,8H-pyrimido[5,4-b][1,4]oxazin-2-yl}-octahydro-1,3-benzoxazol-6-yl]amino}ethyl)-2-oxo-1,2-dihydroquinoline-7-carbonitrile] | < 1 | – | < 1 | 1 to 10 (≈ 1.99 to 19.9 µM) | < 1 | 1 to 10 (≈ 1.99 to 19.9 µM) | – | – | < 1 | 1 to 10 (≈ 1.99 to 19.9 µM) | < 1 | > 100 | – |
| COC(=O)c1ccc2ccc(=O)n(CCN[C@@H]3CC[C@@H]4[C@@H](C3)OC(=O)N4c3ccc4c(n3)NC(=O)CO4)c2c1 [Compound 36, methyl 1-(2-{[(3aR,6R,7aR)-2-oxo-3-{3-oxo-2H,3H,4H-pyrido[3,2-b][1,4]oxazin-6-yl}-octahydro-1,3-benzoxazol-6-yl]amino}ethyl)-2-oxo-1,2-dihydroquinoline-7-carboxylate] | < 1 | – | < 1 | < 1 | < 1 | 1 to 10 (≈ 1.87 to 18.7 µM) | – | – | < 1 | < 1 | < 1 | 10 to 100 (≈ 18.7 to 187 µM) | – |

Reference: patent US10487093B2, “Heterocyclic compounds, in particular 2-oxo-4,4,5,5,6,6,7,7-octahydrobenzoxazole derivatives, and their use as antibacterial compounds” (priority 2016, dated 2019)
